Experimental data: patent US20250387382A1, “METHODS OF TREATING ESSENTIAL TREMOR” (Praxis Precision Medicines, Inc., priority 2023, published 2025)
Entries after “also recorded” stand apart in the source; their conditions may differ.

Legend:
Format in all cases: in vivo, human
patients with ET [1] = assay: Open-label extension of the Phase 2 trial (blinded six-week lead-in, week 14 assessment)
Protocol: After the DB part of the trial was complete, participants were able to choose to enter the Extension part of the trial. Participants who chose to enter the Extension began receiving OL study drug for up to 12 months, or start of the cross-over period, after a 43-day Extension DB Lead-in Period, whichever was earlier. During this Extension DB Lead-in Period, participants who received placebo or 60 mg in the DB part of the trial titrated up to 100 mg in a DB fashion utilizing the same dose titration regimen as in the DB part of the trial. Participants who received 100 mg in the DB part of the trial continued to receive 100 mg in a blinded fashion until all participants were receiving Compound 1 100 mg QAM as of Day 99. Participants who were unable to tolerate fixed-dose titration to 100 mg during the Extension DB Lead-in Period were discontinued from the trial and asked to attend the Safety Follow-up/EOS-E Visit. After the Extension DB Lead-in Period, participants flexibly dosed with Compound 1 (20-100 mg) QAM at the discretion of the Investigator during the Extension OL Period until the start of the cross-over period. Participants who consented to participate in the separate LTSS were able to end participation in the current study after completing the End of Treatment Visit and join the LTSS at any point during the Extension OL Period.
All participants who continued into the Extension part of the trial participated in a 43 day Extension DB Lead-in Period so all participants could be titrated to the 100-mg dose in a blinded fashion (Table 2) before receiving open-label, flexible doses of Compound 1 (20-100 mg) for up to 12 months (Days 100-459) during the Extension OL Period.
Following completion of the initial 8 weeks double-blind treatment phase of the Phase 2 trial described in Example 1, eligible patients had the option to continue their access to Compound 1 in an open-label extension phase (OLE). Participants who continued to the open label extension (OLE) phase remained blinded for a six-week lead-in phase.
In the Extension part of the trial, measures of efficacy include analysis of change from baseline to Days 70, 84, 99, 129, 159, 189, 279, 369, and 459 in modified ADL, CGI-S, TETRAS-ADL total score, TETRAS-PS total score, TETRAS UL score, TETRAS CUL score, and CGI-I and PGI-C scores at Days 70, 84, 99, 129, 159, 189, 279, 369, and 459.
A total of 65 patients who completed the double-blinded portion of the Phase 2 trial described in Example 1 were eligible to participate in the OLE and completed the week 14 assessment. FIG. 21 is a bar graph showing change in mADL11 scores from baseline, by study week from week 8 to week 14. Patients who were eligible and continued on Compound 1 (n=39) experienced an additional mean improvement in mADL11 of 1.7 points from 3.09 at Weck 8 (95% CI: 0.98, 5.2) to 4.81 (95% CI: 2.38, 7.23) after 14 weeks of treatment. Patients who switched from placebo to Compound 1 treatment during the OLE 6-week lead-in (n=26) experienced mean improvement in mADL11 of 3.15 points from 1.21 at Week 8 (95% CI: −1.04, 3.46) to 4.36 (95% CI: 1.68, 7.05.

[2] = Phase 1 trial: effect of a high-fat, high-calorie meal on pharmacokinetics; settings: 120 mg dose, steady state, healthy adult participants
Protocol: The effect of a high-fat, high-calorie meal on the pharmacokinetics of Compound I was evaluated in healthy participants who had previously received Compound 1 under fasted conditions in a Phase 1 trial. The effect of a high-fat, high-calorie meal on the PK of Compound 1 was evaluated at the 120 mg dose level after healthy adult participants had titrated to reach steady-state exposure. Following administration of 120 mg dose in the fed state or fasted state, the maximum plasma drug concentration (Cmax) and AUC, values were similar. Based on this analysis, Compound 1 may be administered without regard to food.

patients with ET [3] = assay: Randomized withdrawal sub-study / blinded 6-week crossover period of the Phase 2 extension
Text: At the re-randomization visit for the cross-over period, and every 7 days in that portion of the study, the treatment regimen was assigned by the IRT and dispensed by site pharmacist for direct-to-patient (DTP) shipping. In the cross-over period of the trial, all participants were centrally assigned to randomize to remain on the current regimen of Compound 1 or placebo using an IRT. After 3 weeks, participants receiving placebo were switched over to Compound 1 following the regimen described in Table 3. The IRT assigned treatment regimen based on the Tetras ADL response criteria after day 7.
The open-label protocol was amended to further assess the criteria to be used in the upcoming randomized withdrawal study in Phase 3 (as described in Example 3). In this sub-study, patients were re-randomized in a blinded-fashion to either receive placebo or continue to receive Compound 1. Twenty-one patients who completed assessments at week 14 of the Open Label Extension were eligible to participate in the blinded sub-study.
Patients were evaluated weekly over a total of 6 weeks, with 11 patients assigned to Compound 1 and 10 patients assigned to placebo for the initial 3-week period, crossing over to either placebo or Compound 1 for an additional 3-week period. Blinded rescue was triggered for patients on placebo if loss in the mADL11 exceeded 2 points at any timepoint.
The results of the Phase 2 trials with ulixacaltamie (see Examples 1 and 2) support the efficacy and safety of ulixacaltamide in patients with ET. […] In the double-blind (DB) portion of the Phase 2 study, the rescored TETRAS-ADL items 1-11 (mADL11) score decreased more in participants randomized to Compound 1 compared with placebo after 56 days of dosing, with least square mean (LSM standard error [SE]) scores of ([…] [0.81]) compared with placebo (−0.87 [0.95]). The LSM (95% confidence interval [CI]) treatment difference was −1.82 (95% CI: −3.565, −0.066; with a nominal p value of <0.05). In the Phase 2 extension period, 20 participants completed a blinded 6-week crossover period. Participants were randomized in blinded fashion to either 3 weeks of Compound 1 60 mg or placebo. Rescue treatment (Compound 1) was offered to participants if their mADL11 worsened by a preset threshold. […] None of the Compound 1-treated participants and 9 of 21 placebo-treated participants qualified for and received rescue treatment within the 3-week period.

[4] = patients who continued on Compound 1, n=39
[5] = patients who switched from placebo to Compound 1, n=26
[6] = patients who switched from Compound 1 to placebo

In the case of `CC(C)(C)NC(=O)CN1CCC(CNC(=O)c2cc(F)cc(Cl)c2)CC1` [Compound 1, N-((1-(2-(tert-butylamino)-2-oxoethyl)piperidin-4-yl)methyl)-3-chloro-5-fluorobenzamide], the “Additional mean improvement in mADL11 from Week 8 to week 14” value (patients with ET [1]; [4]) was 1.7 points, the “mADL11 mean improvement from baseline after 14 weeks” value (patients with ET [1]; [4]) was 4.81 points and the “mADL11 mean improvement from baseline at Week 8” value (patients with ET [1]; [4]) was 3.09 points. The “Mean improvement in mADL11 from Week 8 during OLE 6-week lead-in” value (patients with ET [1]; [5]) was 3.15 points, the “mADL11 mean improvement from baseline after OLE 6-week lead-in” value (patients with ET [1]; [5]) was 4.36 points and the Overall safety results (patients with ET [1]; through 14 weeks of treatment) was “no change to the overall safety results”. For the same molecule, the “AUC, fed state vs fasted state” value [2] was “similar”, the “Cmax, fed state vs fasted state” value [2] was “similar” and the “Patients who maintained their mADL11 within 3-points compared to baseline” value (patients with ET [3]; 52% on placebo) was 85%. The “Participants with maintenance of response” value (patients with ET [3]; crossover period, Compound 1 60 mg, 11 of 21 on placebo) was 17 of 20, the Safety signals (patients with ET [3]; in vivo) was “No new safety signals emerged; also recorded: No new safety signal was identified” and the “Average loss of effect in mADL11 per week” value (patients with ET [3]; [6]) was 47%. The “Mean loss of effect in mADL11” value (patients with ET [3]; [6]) was −1.15 points/week, the “Improvement in global mean change in mADL11 per week” value (patients with ET [3]; periods receiving Compound 1) was 6% and the “Mean improvement in mADL11” value (patients with ET [3]; periods receiving Compound 1) was 0.16 points/week. For the same molecule, the “Participants who qualified for and received rescue treatment” value (patients with ET [3]; within the 3-week period, 9 of 21 on placebo) was “None”.
